Like-named read-outs stand apart in the source and are kept apart here.
Legend:
HEK293 = test: MTT cytotoxicity assay, HEK293 control cells; format: cell-based, human; settings: MTT, 72 h, non-cancer cell line;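 also: Read-out is formazan absorbance at 570 nm from MTT reduction in 96-well plates, with three independent biological replicates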
Daoy = test: MTT cytotoxicity assay, Daoy; format: cell-based, human; settings: 72 h; for IC50: 0.05–50 µM; for cytotoxicity at 50 µM: read-out: % Cytotoxicity (50 µM) DAOY;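 as to all read-outs here: viability read as formazan absorbance at 570 nm after MTT reduction, three independent biological replicates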
H1975 = test: MTT cytotoxicity assay, H1975; format: cell-based; settings: Homo sapiens; for cytotoxicity at 50 µM: read-out: % Cytotoxicity (50 µM) H1975; for IC50: 0.05–50 µM
Protocol: (§1) Cytotoxicity assays were performed by using the MTT reduction method as described previously. Briefly, cancer cell lines were plated in flat-bottom 96-well plates at a cell concentration of 5 × 10^3 cells/well for the fastest growing lines, such as HEK293 and HT29 cells and 1 × 10^4 cells/well for more slowly growing lines, such as HCT116, H1975, BxPC-3, AsPC-1, B16-F10 and DAOY. Then, cells were incubated with the synthesised compounds at different concentrations (from 0.05 to 50 µM) in 200 µL with 10% FBS in RPMI 1640 or DMEM F12 culture medium at 37 °C for 72 h. Later, 10 µL of MTT were added at a final concentration of 0.5 mg/mL, incubated at 37 °C for 4 h, and then solubilised with 10% sodium dodecyl sulphate (SDS) in 0.1 mM HCl and incubated overnight at 37 °C. Formazan formation was measured at 570 nm in a multiwell plate reader (Cytation 5, Biotek Instruments, Winooski, VT, USA). Three independent biological replicates were performed.

HCT116 = test: MTT cytotoxicity assay, HCT116; format: cell-based; settings: Homo sapiens; for cytotoxicity at 50 µM: read-out: % Cytotoxicity (50 µM) HCT116; for IC50: 0.05–50 µM
Protocol: as §1

HT29 = test: MTT cytotoxicity assay, HT29; format: cell-based; settings: Homo sapiens; for cytotoxicity at 50 µM: read-out: % Cytotoxicity (50 µM) HT29; for IC50: 0.05–50 µM
Protocol: as §1

BxPC-3 = test: MTT cytotoxicity assay, BxPC-3; format: cell-based; settings: Homo sapiens, 72 h, 0.05–50 µM
Protocol: as §1

[1] = MTT cytotoxicity assay, HEK293 control cells; format: cell-based, human; settings: human, HEK293 cells; 50 µM, 72 h, MTT;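 also: Read-out is formazan absorbance at 570 nm from MTT reduction in 96-well plates, with three independent biological replicates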
AsPC-1 = test: MTT cytotoxicity assay, AsPC-1; format: cell-based; settings: Homo sapiens, ASPC1, 72 h, 0.05–50 µM
Protocol: as §1

SMILES	cytotoxicity at 72 h, 50 µM [1]	cytotoxicity at 50 µM (H1975; NCI-H1975, 50 µM, 72 h, MTT)	cytotoxicity at 50 µM (HCT116; HCT-116, 50 µM, 72 h, MTT)	cytotoxicity at 50 µM (HT29; HT-29, 50 µM, 72 h, MTT)	cytotoxicity at 50 µM (Daoy; Homo sapiens, Daoy, 50 µM, MTT)	melting point	further results
N.N.[Cl][Pt][Cl] [Cisplatin, reference compound]							IC50 (HEK293): 12 ± 1.4 µM; IC50 (Daoy; MTT): 12 ± 0.7 µM
CCCCCn1cnc2c(-c3ccc(OC(F)(F)F)cc3)nc(NC3CCCC3)nc21 [Compound 4b, N-cyclopentyl-9-pentyl-6-(4-(trifluoromethoxy)phenyl)-9H-purin-2-amine]	< 50%						cytotoxicity at 50 µM (H1975; NCI-H1975, 72 h): 30 ± 1%; IC50 (H1975; NCI-H1975, MTT, 72 h): 30 ± 1 µM; cytotoxicity at 50 µM (HCT116; HCT-116, 72 h): 53 ± 0.9%; IC50 (HCT116; HCT-116, MTT, 72 h): 47 ± 0.9 µM; cytotoxicity at 50 µM (HT29; HT-29, 72 h): < 50%; IC50 (HT29; HT-29, MTT, 72 h): > 50 µM; IC50 (BxPC-3): > 50 µM; IC50 (HEK293; Homo sapiens, HEK293): > 50 µM; IC50 (Daoy; Homo sapiens, Daoy, MTT): > 50 µM; cytotoxicity at 50 µM (Daoy; Homo sapiens, Daoy): 94 ± 0.4%; IC50 (AsPC-1): 23.2 ± 0.2 µM
CCCCn1cnc2c(-c3ccc(OC(F)(F)F)cc3)nc(NC3CCCCC3)nc21 [Compound 4d, 9-Butyl-N-cyclohexyl-6-(4-(trifluoromethoxy)phenyl)-9H-purin-2-amine]	< 50%	< 50%	< 50%	< 50%	< 50%		
CCCCCCn1cnc2c(-c3ccc(OC(F)(F)F)cc3)nc(NC3CCCCC3)nc21 [Compound 4f, N-cyclohexyl-9-hexyl-6-(4-(trifluoromethoxy)phenyl)-9H-purin-2-amine]	< 50%	< 50%	< 50%	< 50%	< 50%	84 to 86 °C	
CCCCn1cnc2c(-c3ccc(OC(F)(F)F)cc3)nc(NCC3CCCCC3)nc21 [Compound 4g, 9-Butyl-N-(cyclohexylmethyl)-6-(4-(trifluoromethoxy)phenyl)-9H-purin-2-amine]	< 50%	< 50%	< 50%	< 50%	< 50%	88 to 89 °C	
CCCCCCn1cnc2c(-c3ccc(OC(F)(F)F)cc3)nc(NCC3CCCCC3)nc21 [Compound 4i, N-(cyclohexylmethyl)-9-hexyl-6-(4-(trifluoromethoxy)phenyl)-9H-purin-2-amine]	< 50%	< 50%	< 50%	< 50%	< 50%		
CCCCCn1cnc2c(-c3ccc(OC(F)(F)F)cc3)nc(N3CCN(c4ccccc4)CC3)nc21 [Compound 4j, 9-Pentyl-2-(4-phenylpiperazin-1-yl)-6-(4-(trifluoromethoxy)phenyl)-9H-purine]	< 50%	< 50%	< 50%	< 50%	< 50%		
CCCCCCn1cnc2c(-c3ccc(OC(F)(F)F)cc3)nc(N3CCN(c4ccccc4)CC3)nc21 [Compound 4k, 9-Hexyl-2-(4-phenylpiperazin-1-yl)-6-(4-(trifluoromethoxy)phenyl)-9H-purine]	< 50%	< 50%	< 50%	< 50%	< 50%	99 to 101 °C	
CCCCCn1cnc2c(-c3ccc(OC(F)(F)F)cc3)nc(N3CCN(c4ccc(Cl)cc4)CC3)nc21 [Compound 4l, 9-Pentyl-2-(4-(4-clorophenyl)piperazin-1-yl)-6-(4-(trifluoromethoxy)phenyl)-9H-purine]	< 50%	< 50%	< 50%	< 50%	< 50%	147 to 149 °C	
CCCCCCn1cnc2c(-c3ccc(OC(F)(F)F)cc3)nc(N3CCN(c4ccc(Cl)cc4)CC3)nc21 [Compound 4m, 2-(4-(4-Chlorophenyl)piperazin-1-yl)-9-hexyl-6-(4-(trifluoromethoxy)phenyl)-9H-purine]	< 50%	< 50%	< 50%	< 50%	< 50%	126 to 128 °C	
CCCCCn1cnc2c(-c3ccc(OC(F)(F)F)cc3)nc(N3CCN(c4ccc([N+](=O)[O-])cc4)CC3)nc21 [Compound 4n, 9-Pentyl-2-(4-(4-nitrophenyl)piperazin-1-yl)-6-(4-(trifluoromethoxy)phenyl)-9H-purine]	< 50%	< 50%	< 50%	< 50%	< 50%	180 to 181 °C	
CCCCCCn1cnc2c(-c3ccc(OC(F)(F)F)cc3)nc(N3CCN(c4ccc([N+](=O)[O-])cc4)CC3)nc21 [Compound 4o, 9-Hexyl-2-(4-(4-nitrophenyl)piperazin-1-yl)-6-(4-(trifluoromethoxy)phenyl)-9H-purine]	< 50%	< 50%	< 50%	< 50%	< 50%	142 to 144 °C	
CCCCCn1cnc2c(-c3ccc(OC(F)(F)F)cc3)nc(N3CCN(c4ccc(OC)cc4)CC3)nc21 [Compound 4p, 9-Pentyl-2-(4-(4-methoxyphenyl)piperazin-1-yl)-6-(4-(trifluoromethoxy)phenyl)-9H-purine]	< 50%	< 50%	< 50%	< 50%	< 50%	118 to 120 °C	
CCCCCCn1cnc2c(-c3ccc(OC(F)(F)F)cc3)nc(N3CCN(c4ccc(OC)cc4)CC3)nc21 [Compound 4q, 9-Hexyl-2-(4-(4-methoxyphenyl)piperazin-1-yl)-6-(4-(trifluoromethoxy)phenyl)-9H-purine]	< 50%	< 50%	< 50%	< 50%	< 50%	144 to 145 °C	
O=c1[nH]cc(F)c(=O)[nH]1 [Compound 5-FU, 5-fluorouracil, reference compound]	< 50%		62 ± 1.3%	66 ± 4.9%			IC50 (HCT116; HCT-116, MTT, 72 h): 31 ± 0.3 µM; IC50 (HT29; HT-29, MTT, 72 h): 0.51 ± 0.06 µM; IC50 (HEK293; Homo sapiens, HEK293): 0.83 ± 0.07 µM
COc1cc([C@@H]2c3cc4c(cc3[C@@H](O[C@@H]3O[C@@H]5CO[C@@H](C)O[C@H]5[C@H](O)[C@H]3O)[C@H]3COC(=O)[C@H]23)OCO4)cc(OC)c1O [Etoposide, reference compound]	65 ± 0.7%	60 ± 1.1%	90 ± 0.5%				IC50 (H1975; NCI-H1975, MTT, 72 h): 40 ± 0.2 µM; IC50 (HCT116; HCT-116, MTT, 72 h): 9.8 ± 0.5 µM; IC50 (HEK293; Homo sapiens, HEK293): 8.4 ± 0.7 µM
Nc1ccn([C@@H]2O[C@H](CO)[C@@H](O)C2(F)F)c(=O)n1 [Gemcitabine, reference compound]							IC50 (BxPC-3): 0.2 ± 0.07 µM; IC50 (HEK293; Homo sapiens, HEK293): 7.5 ± 0.6 µM; IC50 (AsPC-1): 0.3 ± 0.09 µM

Source: paper PMC8395040 (International Journal of Molecular Sciences, 2021)
